# Earlier results as cited in patent US10576041B2, “Extended relief dosage form” (The Procter & Gamble Company, priority 2016, dated 2020).
# Where a name gives a salt, the structure may show the parent alone.
# Conditions: immediate release; in the human body
structure (smiles),measurement,value
CN[C@@H](C)[C@@H](O)c1ccccc1 [pseudoephedrine hydrochloride],half-life,4.3 to 8 h
COc1ccc2c(c1)[C@]13CCCC[C@@H]1[C@H](C2)N(C)CC3 [dextromethorphan hydrobromide],half-life,3 to 5 h
